Test results as given in PMC10657444, “Design and evaluation of tadpole-like conformational antimicrobial peptides” (Communications Biology, 2023).
In brackets after ≈: the same amount, converted by molar mass. Where two headings read alike, the source gives them in different places.

Tested on: K. pneumoniae ATCC 700603
Test: microbe, parasite or virus in culture
Format: cell-based, Klebsiella pneumoniae
Details: for MIC: Klebsiella pneumoniae
Description: MRSA USA 300 and K. pneumoniae ATCC 700603 were employed to assess the development of resistance. From inoculated microtiter panels, an aliquot of the well with the highest concentration permitting growth was taken and back diluted in fresh media to a turbidity of a 0.5 McFarland standard. This suspension was then further diluted and used to inoculate a fresh MIC panel resulting in a final concentration of 5 × 10^6 CFU/mL. Panels were incubated according to CLSI guidelines (M07, 11th edition, 2018), MICs were recorded and the next inoculum was prepared from the well containing the highest concentration of drug that allowed growth in identical fashion as described above.

O=C(O)c1cn(C2CC2)c2cc(N3CCNCC3)c(F)cc2c1=O [ciprofloxacin, reference compound]
MIC (ATCC700603, 0 h, read-out: Concentration (MIC in drug resistance assay), K. pneumoniae ATCC 700603, day 0): 0.25 µg/mL (≈ 0.754 µM)
MIC (ATCC700603, 24 h, read-out: Concentration (MIC in drug resistance assay), K. pneumoniae ATCC 700603, day 1): 0.5 µg/mL (≈ 1.51 µM)
MIC (ATCC700603, 48 h, read-out: Concentration (MIC in drug resistance assay), K. pneumoniae ATCC 700603, day 2): 1 µg/mL (≈ 3.02 µM)
MIC (ATCC700603, 72 h, read-out: Concentration (MIC in drug resistance assay), K. pneumoniae ATCC 700603, day 3): 0.5 µg/mL (≈ 1.51 µM)
MIC (ATCC700603, 96 h, read-out: Concentration (MIC in drug resistance assay), K. pneumoniae ATCC 700603, day 4): 1 µg/mL (≈ 3.02 µM)
MIC (ATCC700603, 120 h, read-out: Concentration (MIC in drug resistance assay), K. pneumoniae ATCC 700603, day 5): 0.5 µg/mL (≈ 1.51 µM)
MIC (ATCC700603, 144 h, read-out: Concentration (MIC in drug resistance assay), K. pneumoniae ATCC 700603, day 6): 1 µg/mL (≈ 3.02 µM)
MIC (ATCC700603, 168 h, read-out: Concentration (MIC in drug resistance assay), K. pneumoniae ATCC 700603, day 7): 1 µg/mL (≈ 3.02 µM)
MIC (ATCC700603, 192 h, read-out: Concentration (MIC in drug resistance assay), K. pneumoniae ATCC 700603, day 8): 2 µg/mL (≈ 6.04 µM)
MIC (ATCC700603, 216 h, read-out: Concentration (MIC in drug resistance assay), K. pneumoniae ATCC 700603, day 9): 1 µg/mL (≈ 3.02 µM)
MIC (ATCC700603, 240 h, read-out: Concentration (MIC in drug resistance assay), K. pneumoniae ATCC 700603, day 10): 1 µg/mL (≈ 3.02 µM)
MIC (ATCC700603, 264 h, read-out: Concentration (MIC in drug resistance assay), K. pneumoniae ATCC 700603, day 11): 2 µg/mL (≈ 6.04 µM)
MIC (ATCC700603, 288 h, read-out: Concentration (MIC in drug resistance assay), K. pneumoniae ATCC 700603, day 12): 2 µg/mL (≈ 6.04 µM)
MIC (ATCC700603, 312 h, read-out: Concentration (MIC in drug resistance assay), K. pneumoniae ATCC 700603, day 13): 2 µg/mL (≈ 6.04 µM)
MIC (ATCC700603, 336 h, read-out: Concentration (MIC in drug resistance assay), K. pneumoniae ATCC 700603, day 14): 4 µg/mL (≈ 12.1 µM)
MIC (ATCC700603, 360 h, read-out: Concentration (MIC in drug resistance assay), K. pneumoniae ATCC 700603, day 15): 4 µg/mL (≈ 12.1 µM)
MIC (ATCC700603, 384 h, read-out: Concentration (MIC in drug resistance assay), K. pneumoniae ATCC 700603, day 16): 4 µg/mL (≈ 12.1 µM)
MIC (ATCC700603, 408 h, read-out: Concentration (MIC in drug resistance assay), K. pneumoniae ATCC 700603, day 17): 4 µg/mL (≈ 12.1 µM)
MIC (ATCC700603, 432 h, read-out: Concentration (MIC in drug resistance assay), K. pneumoniae ATCC 700603, day 18): 4 µg/mL (≈ 12.1 µM)
MIC (ATCC700603, 456 h, read-out: Concentration (MIC in drug resistance assay), K. pneumoniae ATCC 700603, day 19): 4 µg/mL (≈ 12.1 µM)
MIC (ATCC700603, 480 h, read-out: Concentration (MIC in drug resistance assay), K. pneumoniae ATCC 700603, day 20): 8 µg/mL (≈ 24.1 µM)
MIC (ATCC700603, 504 h, read-out: Concentration (MIC in drug resistance assay), K. pneumoniae ATCC 700603, day 21): 4 µg/mL (≈ 12.1 µM)
MIC (ATCC700603, 528 h, read-out: Concentration (MIC in drug resistance assay), K. pneumoniae ATCC 700603, day 22): 4 µg/mL (≈ 12.1 µM)
MIC (ATCC700603, 552 h, read-out: Concentration (MIC in drug resistance assay), K. pneumoniae ATCC 700603, day 23): 4 µg/mL (≈ 12.1 µM)
MIC (ATCC700603, 576 h, read-out: Concentration (MIC in drug resistance assay), K. pneumoniae ATCC 700603, day 24): 4 µg/mL (≈ 12.1 µM)
MIC (ATCC700603, 600 h, read-out: Concentration (MIC in drug resistance assay), K. pneumoniae ATCC 700603, day 25): 4 µg/mL (≈ 12.1 µM)
MIC (ATCC700603, 624 h, read-out: Concentration (MIC in drug resistance assay), K. pneumoniae ATCC 700603, day 26): 8 µg/mL (≈ 24.1 µM)
MIC (ATCC700603, 648 h, read-out: Concentration (MIC in drug resistance assay), K. pneumoniae ATCC 700603, day 27): 8 µg/mL (≈ 24.1 µM)
MIC (ATCC700603, 672 h, read-out: Concentration (MIC in drug resistance assay), K. pneumoniae ATCC 700603, day 28): 8 µg/mL (≈ 24.1 µM)
MIC (ATCC700603, 696 h, read-out: Concentration (MIC in drug resistance assay), K. pneumoniae ATCC 700603, day 29): 8 µg/mL (≈ 24.1 µM)
MIC (ATCC700603, read-out: Concentration (MIC in drug resistance assay), K. pneumoniae ATCC 700603, day 30): 8 µg/mL (≈ 24.1 µM)
MIC (ATCC700603, read-out: Concentration (MIC in drug resistance assay), K. pneumoniae ATCC 700603, day 31): 8 µg/mL (≈ 24.1 µM)
MIC (ATCC700603, read-out: Concentration (MIC in drug resistance assay), K. pneumoniae ATCC 700603, day 32): 8 µg/mL (≈ 24.1 µM)
MIC (ATCC700603, read-out: Concentration (MIC in drug resistance assay), K. pneumoniae ATCC 700603, day 33): 8 µg/mL (≈ 24.1 µM)
MIC (ATCC700603, read-out: Concentration (MIC in drug resistance assay), K. pneumoniae ATCC 700603, day 34): 8 µg/mL (≈ 24.1 µM)
MIC (ATCC700603, read-out: Concentration (MIC in drug resistance assay), K. pneumoniae ATCC 700603, day 35): 16 µg/mL (≈ 48.3 µM)
MIC (ATCC700603, read-out: Concentration (MIC in drug resistance assay), K. pneumoniae ATCC 700603, day 36): 16 µg/mL (≈ 48.3 µM)
MIC (ATCC700603, read-out: Concentration (MIC in drug resistance assay), K. pneumoniae ATCC 700603, day 37): 16 µg/mL (≈ 48.3 µM)
MIC (ATCC700603, read-out: Concentration (MIC in drug resistance assay), K. pneumoniae ATCC 700603, day 38): 16 µg/mL (≈ 48.3 µM)
MIC (ATCC700603, read-out: Concentration (MIC in drug resistance assay), K. pneumoniae ATCC 700603, day 39): 16 µg/mL (≈ 48.3 µM)
MIC (ATCC700603, read-out: Concentration (MIC in drug resistance assay), K. pneumoniae ATCC 700603, day 40): 16 µg/mL (≈ 48.3 µM)
increase in MIC after 40 passages (serial passage at sub-MIC): 64 fold
